Data taken from US20200187499A1, “SUBSTITUTED BENZYL-4-AMINOPICOLINIC ESTERS AND PYRIMIDINO-4-CARBOXYLIC ESTERS, METHODS FOR THE PRODUCTION THEREOF, AND USE THEREOF AS HERBICIDES AND PLANT GROWTH REGULATORS” (Bayer CropScience Aktiengesellschaft, priority 2017, published 2020).

Columns and labels:
Type in all cases: in vivo
ABUTH = experiment: Post-emergence herbicidal action; conditions: 320 g/ha, assessed after about 3 weeks
Experimental: (§1) Seeds of monocotyledonous and dicotyledonous weed and crop plants are laid out in sandy loam soil in wood-fiber pots, covered with soil and cultivated in a greenhouse under good growth conditions. 2 to 3 weeks after sowing, the test plants are treated at the one-leaf stage. The compounds of the invention, formulated in the form of wettable powders (WP) or as emulsion concentrates (EC), are then sprayed onto the green parts of the plants in the form of an aqueous suspension or emulsion at a water application rate equating to 600 to 800 l/ha, with addition of 0.2% wetting agent. After the test plants have been left to stand in the greenhouse under optimal growth conditions for about 3 weeks, the action of the preparations is assessed visually in comparison to untreated controls (herbicidal action in percent (%): 100% activity=the plants have died, 0% activity=like control plants). […] At the same time, inventive compounds leave Gramineae crops such as barley, wheat, rye, millet/sorghum, corn or rice virtually undamaged when applied post-emergence, even at high active ingredient dosages. In addition, some substances are also harmless to dicotyledonous crops such as soya, cotton, oilseed rape, sugar beet or potatoes. Some of the compounds according to the invention have high selectivity and are therefore suitable for controlling unwanted vegetation in agricultural crops by the post-emergence method. The tables below illustrate, in an exemplary manner, the post-emergence herbicidal action of the compounds according to the invention, the herbicidal activity being stated in percent.

AMARE [1] = experiment: Post-emergence herbicidal action; conditions: 320 g/ha, assessed after about 3 weeks
Experimental: as §1

SETVI = experiment: Post-emergence herbicidal action; conditions: Table 6, post-emergence (PO), 320 g/ha, assessed after about 3 weeks
Experimental: as §1

STEME = experiment: Post-emergence herbicidal action; conditions: Table 6, post-emergence (PO), 320 g/ha, assessed after about 3 weeks
Experimental: as §1

AMARE [2] = experiment: Pre-emergence herbicidal action; conditions: Table 4, pre-emergence (PE), 320 g/ha, scored after 3 weeks
Excerpt: (§2) Seeds of monocotyledonous and dicotyledonous weed plants and crop plants are laid out in sandy loam soil in wood-fiber pots and covered with soil. The compounds of the invention, formulated in the form of wettable powders (WP) or as emulsion concentrates (EC), are then applied to the surface of the covering soil in the form of an aqueous suspension or emulsion at a water application rate equating to 600 to 800 I/ha, with addition of 0.2% wetting agent. After the treatment, the pots are placed in a greenhouse and kept under good growth conditions for the trial plants. The damage to the test plants is scored visually after a test period of 3 weeks by comparison with untreated controls (herbicidal activity in percent (%): 100% activity=the plants have died, 0% activity=like control plants).
(§3) At the same time, inventive compounds leave Gramineae crops such as barley, wheat, rye, millet/sorghum, corn or rice virtually undamaged when applied pre-emergence, even at high active ingredient dosages. In addition, some substances are also harmless to dicotyledonous crops such as soya, cotton, oilseed rape, sugar beet or potatoes. […] The tables below illustrate, in an exemplary manner, the pre-emergence herbicidal action of the compounds according to the invention, the herbicidal activity being stated in percent.

ECHCG = experiment: Pre-emergence herbicidal action; conditions: Table 4, pre-emergence (PE), 320 g/ha, scored after 3 weeks
Excerpt: as §2, §3

Row | Compound | Herbicidal action against ABUTH (ABUTH; Table 6, post-emergence (PO)) [%] | Herbicidal action against AMARE (AMARE [1]; Table 6, post-emergence (PO)) [%] | Herbicidal action against SETVI (SETVI) [%] | Herbicidal action against STEME (STEME) [%] | Herbicidal action against ABUTH (ABUTH; Table 9, post-emergence (PO)) [%] | Herbicidal action against AMARE (AMARE [1]; Table 9, post-emergence (PO)) [%] | Herbicidal action against AMARE (AMARE [2]) [%] | Herbicidal action against ECHCG (ECHCG) [%]
1 | Nc1cc(-c2ccc3ccoc3c2F)nc(C(=O)OCc2ccc(Cl)cc2)c1Cl [Example I-49] | 90 | 100 | 80 | 90 | – | – | – | –
2 | Nc1c(F)c(-c2cc3ccsc3cc2F)nc(C(=O)OCc2ccc(Cl)cc2)c1Cl [Example I-58] | – | – | – | – | 90 | 100 | – | –
3 | Nc1c(F)c(-c2ccc3ccoc3c2)nc(C(=O)OCc2ccc(Cl)cc2Cl)c1Cl [Example I-51] | – | – | – | – | 80 | 90 | 70 | 20
4 | Nc1cc(-c2ccc3ncsc3c2)nc(C(=O)OCc2ccc(F)cc2F)c1Cl [Example I-39] | 100 | 90 | 100 | 70 | – | – | – | –
5 | Nc1c(F)c(-c2ccc3occc3c2)nc(C(=O)OCc2ccc(Cl)cc2Cl)c1Cl [Example I-63] | – | – | – | – | 80 | 80 | – | –
6 | Nc1cc(-c2ccc3occc3c2)nc(C(=O)OCc2ccc(F)cc2F)c1Cl [Example I-24] | 100 | 100 | 80 | 80 | – | – | 90 | 60
7 | Nc1cc(-c2ccc3ccoc3c2)nc(C(=O)OCc2ccc(F)c(F)c2F)c1Cl [Example I-23] | 90 | 100 | 90 | 100 | – | – | 100 | 90
8 | Nc1cc(-c2ccc3ccsc3c2)nc(C(=O)OCc2ccc(F)c(F)c2F)c1Cl [Example I-46] | – | – | – | – | 90 | 100 | 100 | 60
9 | Nc1cc(-c2ccc3ccoc3c2)nc(C(=O)OCc2ccc(F)cc2)c1Cl [Example I-26] | 100 | 100 | 100 | 100 | – | – | 100 | 70
10 | Nc1c(F)c(-c2ccc3sccc3c2)nc(C(=O)OCc2ccc(F)cc2F)c1Cl [Example I-56] | 80 | 90 | 80 | 90 | – | – | 80 | 30
11 | Nc1cc(-c2ccc3occc3c2)nc(C(=O)OCc2cccc(Cl)c2)c1Cl [Example I-38] | 100 | 100 | 90 | 100 | – | – | – | –
12 | COc1c(F)ccc(COC(=O)c2nc(-c3ccc4ccoc4c3)cc(N)c2Cl)c1F [Example I-28] | 100 | 100 | 100 | 100 | – | – | 100 | 90
13 | Nc1c(F)c(-c2ccc3occc3c2)nc(C(=O)OCc2ccc(F)cc2F)c1Cl [Example I-48] | 90 | 90 | 30 | 80 | – | – | 90 | 10
14 | Nc1cc(-c2ccc3occc3c2)nc(C(=O)OCc2ccccc2[N+](=O)[O-])c1Cl [Example I-62] | – | – | – | – | 100 | 40 | – | –
15 | COc1c(Cl)ccc(Cl)c1COC(=O)c1nc(-c2ccc3occc3c2)cc(N)c1Cl [Example I-57] | 90 | 100 | 80 | 70 | – | – | – | –
16 | Nc1cc(-c2ccc3occc3c2)nc(C(=O)OCc2ccccc2C(F)(F)F)c1Cl [Example I-37] | 100 | 100 | 90 | 100 | – | – | 100 | 90
17 | Nc1c(F)c(-c2ccc3ncsc3c2)nc(C(=O)OCc2ccc(Cl)cc2)c1Cl [Example I-64] | 90 | 90 | 90 | 40 | – | – | – | –
18 | Nc1c(F)c(-c2ccc3ccsc3c2)nc(C(=O)OCc2ccc(Cl)cc2)c1Cl [Example I-45] | 90 | 90 | 30 | 90 | – | – | 100 | 40
19 | Nc1cc(-c2ccc3ccoc3c2F)nc(C(=O)OCc2cccc(Cl)c2)c1Cl [Example I-33] | 90 | 100 | 80 | 90 | – | – | 90 | 20
20 | Nc1c(F)c(-c2cc3ccoc3cc2F)nc(C(=O)OCc2ccc(Cl)cc2)c1Cl [Example I-68] | – | – | – | – | 80 | 80 | – | –
21 | Nc1cc(-c2ccc3ccsc3c2)nc(C(=O)OCc2ccccc2Cl)c1Cl [Example I-44] | 100 | 100 | 60 | 100 | – | – | 90 | 60
22 | Nc1c(F)c(-c2ccc3sccc3c2)nc(C(=O)OCc2c(F)cc(F)cc2F)c1Cl [Example I-59] | 90 | 90 | 80 | 90 | – | – | 80 | 30
23 | Nc1c(F)c(-c2cc3ccoc3cc2F)nc(C(=O)OCc2ccc(F)cc2)c1Cl [Example I-71] | – | – | – | – | 40 | 80 | – | –
24 | Nc1cc(-c2ccc3ccoc3c2)nc(C(=O)OCc2cc(F)c(F)cc2F)c1Cl [Example I-27] | 90 | 100 | 80 | 100 | – | – | 100 | 60
